Measured values as given in article doi:10.1101/2025.04.25.650653, “Hierarchical small molecule inhibition of MYST acetyltransferases” (bioRxiv, 2025).

System: histone modifications in MCF-7 cells
Assay: Histone modification analysis by bottom-up LC-MS/MS
Assay type: cell-based
Conditions: for Average ratio, H2A1_12_17 unmod (AKAKTR): peptide H2A1_12_17 unmod; for Average ratio, H2A1_12_17 unmod (AKAKTR) / Average ratio, H2A3_12_17 K15me1 (AKAKSR) / Ratio, H2A1_12_17 unmod / Ratio, H2A3_12_17 K15me1: MCF-7; for Average ratio, H2A1_12_17 unmod (AKAKTR) / Average ratio, H2A3_12_17 K15me1 (AKAKSR): average of 3 replicates; for Average ratio, H2A3_12_17 K15me1 (AKAKSR): peptide H2A3_12_17 K15me1
From the text: In this approach. […] Histones are then extracted from cell pellets and chemically derivatized with propionic anhydride, digested with trypsin, subjected to a second round of propionylation, and analyzed by LC-MS/MS. Measuring the relative intensity of modified versus unmodified forms of individual histone peptides enables simultaneous monitoring of multiple potential biomarkers of MYST inhibition. To minimize false positives, we focused on abundant and reproducible modifications (average stoichiometry of greater than 1% across triplicate samples, standard deviation less than or equal to the average measurement). To account for potential histone modification crosstalk, changes in both acetylated and methylated peptides were evaluated. 38 modified peptides passed this reproducible detection threshold including several established KAT biomarkers[41] including H3K9Ac (KAT2A/B), H3K18Ac (KAT3A/B), H3K14Ac (KAT7), H3K23Ac (KAT6A/B), H4K16Ac (KAT8), and H2A.ZK4/K7Ac (KAT5; Fig. 4B).
Histone modification analysis
MCF-7 cells were cultured at 37 °C under 5% CO2 in EMEM (Quality Biological, 112-016-101) with 0.01 mg/mL human recombinant insulin (Sigma Aldrich, 91077C), 2 mM L-glutamine (Quality Biological, 118- […]
human recombinant insulin.
1119, WM-3835). Following 24 h inhibitor treatment, cells were washed with ice-cold 1× PBS and scraped in 150 µL of Nuclear Isolation Buffer (NIB) containing 0.1% NP-40 for histone extraction using a modified protocol from the Garcia laboratory. 9 Briefly, cell suspensions were incubated on ice for 5 minutes, and […]
nuclei were pelleted by centrifugation (600 rcf, 4°C, 5 min). Pelleted nuclei were washed twice with 150 μL of detergent-free NIB buffer, followed by centrifugation (600 rcf, 4°C, 5 min) to remove all detergent.
Nuclei were then resuspended in 400 μL of 0.4 N H₂SO₄ and rotated at 4°C overnight for acid extraction of histones. The following day, samples were centrifuged (11,000 rcf, 4°C, 10 min) and the histone-containing supernatant was transferred to a fresh tube. Trichloroacetic acid (100% TCA) was added to achieve a final concentration of 20% (v/v), tubes were inverted once to mix, and histone precipitation was performed on ice for at least 3 hours or overnight at 4°C. Precipitated histones were collected by centrifugation (11,000 rcf, 4°C, 10 min) and the supernatant carefully removed, leaving a visible film of histones on the tube wall or bottom. Histone pellets were subjected to sequential washes with 1 mL of ice-cold acidified acetone (0.1% 12 N HCl) followed by 1 mL of 100% ice-cold acetone, with centrifugation (11,000 rcf, 4°C, 5 min) after each wash. Samples were air-dried at room temperature, resuspended in 40 µL of ddH₂O, and protein […]
analysis, 1-2 µg of purified histones were loaded per lane and processed according to the general immunoblotting protocol described in General Materials and Methods.
Analysis of histone modifications by LC-MS/MS
Preparation of histone samples for LC-MS/MS was performed analogously to the procedure for immunoblotting above, with the following modifications. MCF7 cells (4.2 × 106) were seeded in 15 cm dishes and treated with PF-9363 or vehicle. Experiments were performed in triplicate. Following treatment and PBS washing, cells were scraped and collected in 15 mL falcon tubes, pelleted (500 rcf, 4°C, 5 min), resuspended in 1 mL cold PBS, transferred to microcentrifuge tubes, and pelleted again before flash-freezing in liquid nitrogen for storage at -80°C. For extraction, cell pellets (~100 μL) were resuspended in NIB buffer at a 1:10 ratio, and cells were lysed with NIB buffer containing 0.2% NP-40 for 8 minutes on ice. Nuclei were pelleted at 1,000 rcf for 8 minutes and washed three times with 500 μL detergent-free NIB buffer. Histones were extracted using 800 μL of 0.2 M H₂SO₄, and after centrifugation (3,400 rcf, 4°C, 10

Q: COc1cccc(OC)c1S(=O)(=O)Nc1noc2cc(Cn3cccn3)cc(OC)c12 [PF-9363] was tested. Which “Average ratio, H2A1_1_11 K5ac” value (PF-9363 (0.1 mM)) did it give?
A: 0.8521

Q: What about the “Average ratio, H2A1_4_11 K5ac” value (PF-9363 (0.1 mM)) of the same compound?
A: 0.0421

Q: And the “Average ratio, H2A1_4_11 K9ac” value (PF-9363 (0.1 mM))?
A: 0.0404

Q: What about the “Average ratio, H2A1_4_11 unmod” value (PF-9363 (0.1 mM)) of the same compound?
A: 0.9065

Q: And the “Average ratio, H2A1_36_42 unmod” value (PF-9363 (0.1 mM))?
A: 0.9991

Q: And the “Average ratio, H2A3_36_42 unmod” value (PF-9363 (0.1 mM))?
A: 1.0000

Q: What about the “Average ratio, H2AJ_4_11 K5acK9ac” value (PF-9363 (0.1 mM)) of the same compound?
A: 0.8702

Q: And the “Average ratio, H2AV_1_19 K4ac” value (PF-9363 (0.1 mM))?
A: 0.0404

Q: And the “Average ratio, H2AV_1_19 unmod” value (PF-9363 (0.1 mM))?
A: 0.8917

Q: And the “Average ratio, H2AX_36_42 unmod” value (PF-9363 (0.1 mM))?
A: 1.0000

Q: What about the “Average ratio, H2AZ_1_19 K11ac” value (PF-9363 (0.1 mM)) of the same compound?
A: 0.0091

Q: What about the “Average ratio, H2AZ_1_19 unmod” value (PF-9363 (0.1 mM)) of the same compound?
A: 0.8729

Q: And the “Average ratio, H3_73_83 K79me1” value (PF-9363 (0.1 mM))?
A: 0.0887

Q: What about the “Average ratio, H3_73_83 K79me2” value (PF-9363 (0.1 mM)) of the same compound?
A: 0.0735

Q: And the “Average ratio, H3_73_83 unmod” value (PF-9363 (0.1 mM))?
A: 0.8364

Q: And the “Average ratio, H4_4_17 K12acK16ac” value (PF-9363 (0.1 mM))?
A: 0.0092

Q: What about the “Average ratio, H4_4_17 unmod” value (PF-9363 (0.1 mM)) of the same compound?
A: 0.6321

Q: What about the “Average ratio, H4_20_23 K20me1” value (PF-9363 (0.1 mM)) of the same compound?
A: 0.0308

Q: What about the “Average ratio, H4_20_23 unmod” value (PF-9363 (0.1 mM)) of the same compound?
A: 0.0293

Q: What about the “Average ratio, H2A1_12_17 unmod (AKAKTR)” value (PF-9363 (0.1 mM)) of the same compound?
A: 0.4892

Q: And the “Average ratio, H2A3_12_17 K15me1 (AKAKSR)” value (PF-9363 (0.1 mM))?
A: 0.4715

Q: And the “Average ratio, H2A1_1_11 K5ac” value (PF-9363 (30 mM))?
A: 0.8566

Q: And the “Average ratio, H2A1_4_11 K5ac” value (PF-9363 (30 mM))?
A: 0.0480

Q: What about the “Average ratio, H2A1_4_11 K9ac” value (PF-9363 (30 mM)) of the same compound?
A: 0.0347

Q: What about the “Average ratio, H2A1_4_11 unmod” value (PF-9363 (30 mM)) of the same compound?
A: 0.9114

Q: What about the “Average ratio, H2A1_36_42 unmod” value (PF-9363 (30 mM)) of the same compound?
A: 0.9988

Q: And the “Average ratio, H2A3_36_42 unmod” value (PF-9363 (30 mM))?
A: 1.0000

Q: And the “Average ratio, H2AJ_4_11 K5acK9ac” value (PF-9363 (30 mM))?
A: 0.8922

Q: What about the “Average ratio, H2AV_1_19 K4ac” value (PF-9363 (30 mM)) of the same compound?
A: 0.0413

Q: What about the “Average ratio, H2AV_1_19 unmod” value (PF-9363 (30 mM)) of the same compound?
A: 0.7807

Q: And the “Average ratio, H2AX_4_11 unmod” value (PF-9363 (30 mM))?
A: 0.3301

Q: And the “Average ratio, H2AX_36_42 unmod” value (PF-9363 (30 mM))?
A: 1.0000

Q: And the “Average ratio, H2AZ_1_19 K11ac” value (PF-9363 (30 mM))?
A: 0.0141

Q: And the “Average ratio, H2AZ_1_19 unmod” value (PF-9363 (30 mM))?
A: 0.9481

Q: What about the “Average ratio, H3_73_83 K79me1” value (PF-9363 (30 mM)) of the same compound?
A: 0.0821

Q: What about the “Average ratio, H3_73_83 K79me2” value (PF-9363 (30 mM)) of the same compound?
A: 0.0558

Q: And the “Average ratio, H3_73_83 unmod” value (PF-9363 (30 mM))?
A: 0.8605

Q: And the “Average ratio, H4_4_17 K12acK16ac” value (PF-9363 (30 mM))?
A: 0.1819

Q: And the “Average ratio, H4_4_17 unmod” value (PF-9363 (30 mM))?
A: 0.4341

Q: What about the “Average ratio, H4_20_23 K20me1” value (PF-9363 (30 mM)) of the same compound?
A: 0.0237

Q: And the “Average ratio, H4_20_23 unmod” value (PF-9363 (30 mM))?
A: 0.0213

Q: What about the “Average ratio, H2A1_12_17 unmod (AKAKTR)” value (PF-9363 (30 mM)) of the same compound?
A: 0.5017

Q: And the “Average ratio, H2A3_12_17 K15me1 (AKAKSR)” value (PF-9363 (30 mM))?
A: 0.4920

Q: What about the “Ratio, H2A1_12_17 unmod” value (Replicate 1, PF-9363 0.1) of the same compound?
A: 0.4969

Q: And the “Ratio, H2A3_12_17 K15me1” value (Replicate 1, PF-9363 0.1)?
A: 0.4799

Q: And the “Ratio, H2A1_12_17 unmod” value (Replicate 1, PF-9363 1)?
A: 0.5198

Q: What about the “Ratio, H2A3_12_17 K15me1” value (Replicate 1, PF-9363 1) of the same compound?
A: 0.5023

Q: And the “Ratio, H2A1_12_17 unmod” value (Replicate 1, PF-9363 10)?
A: 0.4982

Q: And the “Ratio, H2A3_12_17 K15me1” value (Replicate 1, PF-9363 10)?
A: 0.4848

Q: What about the “Ratio, H2A1_12_17 unmod” value (Replicate 1, PF-9363 30) of the same compound?
A: 0.5053

Q: And the “Ratio, H2A3_12_17 K15me1” value (Replicate 1, PF-9363 30)?
A: 0.497

Q: What about the “Ratio, H2A1_12_17 unmod” value (Replicate 2, PF-9363 0.1) of the same compound?
A: 0.484

Q: What about the “Ratio, H2A3_12_17 K15me1” value (Replicate 2, PF-9363 0.1) of the same compound?
A: 0.4685

Q: And the “Ratio, H2A1_12_17 unmod” value (Replicate 2, PF-9363 1)?
A: 0.4972

Q: And the “Ratio, H2A3_12_17 K15me1” value (Replicate 2, PF-9363 1)?
A: 0.4788

Q: What about the “Ratio, H2A1_12_17 unmod” value (Replicate 2, PF-9363 10) of the same compound?
A: 0.498

Q: What about the “Ratio, H2A3_12_17 K15me1” value (Replicate 2, PF-9363 10) of the same compound?
A: 0.4832
